Where two headings read alike, the source gives them in different places.
Experiments:
guinea pig ileum = assay: antigen-induced contraction of ileum from sensitized guinea pigs; conditions: Cavia porcellus, read-out: Percentage Inhibition, 30 μM compound, n = 3-4
Protocol: The ability of compounds to inhibit allergen-induced contraction of ileum from sensitized animals is indicative of antiallergic activity. Sensitized guinea pig ileum is particularly useful in measuring the immediate allergic response.
The guinea pig ileum has been used to evaluate the ability of compounds to inhibit allergan-induced histamine and mediator release causing smooth muscle contraction. Guinea pigs were sensitized by an intraperitoneal injection of 100 mg ovalbumin and an intramuscular injection of 50 mg ovalbumin on day 0, followed by a second intramuscular injection of 50 mg ovalbumin on day 1. […] Segments of ileum were prepared and suspended, with muscle contractions being measured in the longitudinal plane, in Tyrode's buffer at 37° C. and aerated with 5% CO2 in O2. Tissues were suspended under a resting tension of 2 grams and isometric contractions were measured using force-displacement transducers coupled to a polygraph. Tissues were stimulated with 3 μM histamine 3 times to ensure reproducible contractions were obtained. Tissues were then incubated with each compound (30 μM) or 0.15% dimethylsulphoxide (DMSO) as a control, for 20 min, after which time the tissues were challenged with 100 μg/ml ovalbumin. The magnitude of the contraction induced by OA in the presence of each compound was expressed as a percentage of the contraction obtained to 3 μM histamine. The protective effects of the various compounds on OA-induced contraction of guinea pig ileum from sensitized animals are summarized in Table 4.

mouse mast cells (MC/9) = assay: antigen-induced release of hexosaminidase from MC/9 cells; format: cell-based; conditions: for inhibition at 25 µM: Mus musculus, MC9, 25 μM compound, read-out: Percentage Inhibition (mean) MC/9 cells
Protocol: (§1) The anti-allergic effects of various polyhydroxylated steroids of the present invention were evaluated by measuring their effect on antigen-induced secretion of hexosaminidase from a passively sensitized rat mast cell line (RBL-2H3) and a murine mast cell line (MC/9). The ability of agents to inhibit the release of mast cell granule contents, e.g., histamine and hexosaminidase, is indicative of anti-allergy and/or anti-asthma activity.
(§2) Hexosaminidase is released from the mast cell granule along with histamine and other mediators during antigen challenge. RBL-2H3 and MC/9 cells were grown in culture and passively sensitized to dinitrophenol (DNP) using anti-human-DNP (IgE). Cells were incubated with each compound (25 μM) for 1 hour at 37° C. and then stimulated with 0.1 mg/ml DNP-HSA (antigen) for 15 min. Aliquots of the supernatant were removed and used to measure the amount of hexosaminidase released during challenge with the antigen. The amount of hexosaminidase present in the supernatant was determined calorimetrically by monitoring the enzymatic metabolism of p-nitrophenyl-N-acetyl-β-D-glucosaminide (p-NAG) over a period of 1 hour at 410 nm. The effect of each compound was determined as a percentage of the antigen-induced response (minus background release) obtained in the presence of DMSO alone, as set forth in Tables 2 and 3. These values were used to determine the degrees of inhibition of antigen-induced hexosaminidase release from the cells.

[1] = test system: passively sensitized rat mast cells (RBL-2H3); assay: antigen-induced release of hexosaminidase from RBL-2H3 cells; format: cell-based; conditions: for inhibition at 25 µM: Rattus norvegicus
Protocol: as §1, §2

sensitized guinea pigs = assay: allergen-induced changes in lung resistance and compliance in vivo; set-up: species or system guinea pig; conditions: 5 mg/kg/day for 4 days p.o.
Protocol: Female Cam Hartley guinea pigs (350-400 g) are sensitized to ovalbumin by exposure of the guinea pigs to a nebulized solution of 1% ovalbumin in saline for 15 minutes. After 10-12 days, the animals are found to be acutely sensitized to the allergen (ovalbumin). Animals are treated by oral gavage, under light halothane anesthesia, with 300 μl polyethyleneglycol-200 (PEG) or 5 mg/Kg of test compound in 300 μl of PEG. Animals are treated once daily for 4 days with the final dose administered 2 hours prior to allergen challenge. Alternatively, compounds were delivered by inhalation, using a Hudson nebulizer driven by 6 psi oxygen, providing a single dose of 50 μg/Kg 20 min prior to challenge.
An animal is anaesthetized using ketamine ([…]; i.p.) and xylazine (10 mg/Kg; i.p.) and 1% halothane during the surgical procedure. A tracheostomy is performed and a water-filled esophageal cannula is inserted prior to positioning the animal in a body plethysmograph. The tracheal cannula is attached to a fixed tracheal cannula in the plethysmograph. Cardiac function is monitored using electrocardiography. The animal is paralyzed using pancuronium bromide (0.8 mg/Kg; i.m.) and ventilated with 3 ml tidal breaths using a Harvard small animal ventilator, at a frequency of 60 breaths per minute. Pulmonary resistance and dynamic lung compliance data are obtained from volume, flow and transpulmonary pressure signals using multipoint analysis.
Pulmonary function is continually monitored throughout the experiment and measurements of lung resistance and lung compliance are made at various time-points (e.g., 0, 1, 2, 3, 4, 5, 10, 20 and 30 min) following antigen challenge. Data is collected on a computer-linked physiological measurement system using DIREC Physiological recording software and analyzed using ANADAT software designed for lung mechanics measurements. This software was obtained from RHT-InfoDat Inc., Montreal, Quebec, Canada.
Once baseline resistance and compliance measurements are obtained, the animal is challenged with 6 breaths of saline. After 10 minutes, during which time no alterations in lung function should occur, the animal is challenged with 6 breaths of 2 or 3% ovalbumin in saline (as the antigen stimulus). Saline and antigen are delivered in each breath using a Hudson nebulizer.

isolated trachea = test system: isolated trachea; set-up: species or system guinea pig; conditions: compound 20 μM, study 2
Protocol: The effects of a number of the compounds described herein on allergen-induced bronchoconstriction were evaluated for anti-asthma activity. The ability of a compound to inhibit allergen-induced decreases in lung function in sensitized guinea pigs in response to antigen-challenge is indicative of anti-asthma activity. In particular, the model system is useful in the evaluation of the potential effects of a compound in the treatment of the early asthmatic reaction (EAR) when severe bronchoconstriction occurs.
Guinea pigs were exposed to a nebulized solution of 1% ovalbumin (OA) in saline for 15 min. […] Tracheal rings were prepared and bathed in Krebs-Henseleit solution at 37° C. and aerated with 5% CO2 in […]. Tissues were suspended under a resting tension of 2 g and isometric contractions were measured using force-displacement transducers coupled to a polygraph. Tissues were incubated with each compound or 0.1% dimethylsulfoxide (as a control) for 20 min, after which increasing concentrations of OA (0.001-100 μg/ml) were added to the tissue. After the final concentration of OA was added and the response was recorded, the tissues were stimulated with 100 μM methacholine which caused maximum contraction of the trachea. The magnitude of the contraction induced by OA in the presence of each compound was expressed as a percentage of the maximum contraction obtained using methacholine (100 μM).

[2] = RBL-2H3, 25 μM compound, antigen-induced hexosaminidase release, read-out: Percentage Inhibition (mean) RBL-2H3 Cells
[3] = RBL-2H3, read-out: Percentage Inhibition (mean) RBL-2H3 Cells

SMILES | inhibition at 30 µM (guinea pig ileum) [%] | inhibition at 25 µM (mouse mast cells (MC/9)) [%] | inhibition at 25 µM [1, 2] [%] | other results
CC(C)(C)[Si](C)(C)OC1CC[C@]2(C)C3CC[C@@]4(C)C(CCC45OCCO5)C3[C@@H](O)[C@H](O)C2C1 (stereo partly drawn) [Compound 221] | 60.7 | – | – | –
CC[C@H]1CCC2C3C(CC[C@@]21C)[C@@]1(C)CC[C@@H](O)CC1[C@H]1OC(C)(C)O[C@H]31 (stereo partly drawn) [Compound 361] | 55 | 13 | – | –
CC[C@H]1CCC2C3C(CC[C@@]21C)[C@@]1(C)C[C@@H](O)C(O)CC1[C@@H](O)[C@@H]3O (stereo partly drawn) [Compound 360] | 50.5 | – | 76 | –
C[C@]12CC[C@H]3O[C@H]3[C@@H]1[C@@H](O)[C@H](O)[C@@H]1[C@@H]2CC[C@]2(C)[C@@H](O)CC[C@@H]12 [Compound 239, 3α,4α-epoxy-6α,7β,17β-trihydroxy-5α-androstane] | – | – | – | inhibition at 25 µM [1, 3]: 9.6%
C/C=C1/CCC2C3C(CC[C@]12C)[C@@]1(C)CC[C@@H](Cl)CC1[C@@H](O)[C@@H]3O (stereo partly drawn) [Compound 337] | 50.7 | 56 | 44 | –
CC(C)CCCC(C)C1CCC2C3C(O)C(O)C4CC(O)CCC4(C)C3CCC12C (stereo not drawn) [Compound 354] | – | – | – | Percentage Inhibition (mean) RBL-2H3 Cells ([1]; 25 μM compound, antigen-induced hexosaminidase release): 30%; Percentage Inhibition (mean) MC/9 cells (mouse mast cells (MC/9); 25 μM compound): 76%
C[C@]12CC[C@@H](O)[C@H](O)[C@@H]1[C@@H](O)[C@H](O)[C@@H]1[C@@H]2CC[C@]2(C)[C@@H](O)CC[C@@H]12 [Compound 241, 3α,4β,6α,7β,17β-pentahydroxy-5α-androstane] | – | – | – | inhibition at 25 µM [1, 3]: 22%
CC(=O)O[C@@H]1C2C(CC[C@@]3(C)C2CCC32OCCO2)[C@@]2(C)CC[C@H](O)CC2[C@H]1OC(C)=O (stereo partly drawn) [Compound 322] | – | – | 25.6 | –
C/C=C1/CCC2C3C(CC[C@]12C)[C@@]1(C)CCCCC1[C@@H](O)[C@@H]3O (stereo partly drawn) [Compound 346] | 62.5 | 61 | 16 | –
CC(C)C1CC(O)OC(C(C)C2CCC3C4C(CC[C@]23C)[C@@]2(C)CC[C@@H](O)CC2[C@@H](O)[C@@H]4O)C1 (stereo partly drawn) [Compound 306, 22,29-epoxy-3,6,7,29-tetrahydroxystigmastanol] | – | – | 40.5 | –
C[C@H]1CCC2C3C(CC[C@@]21C)[C@@]1(C)CC[C@H](O)CC1[C@@H](O)[C@@H]3O (stereo partly drawn) [Compound 343] | 48.9 | 40 | 52 | –
C=C1CCC2C3C(CC[C@]12C)[C@@]1(C)CC[C@H](O)CC1[C@@H](O)[C@@H]3O (stereo partly drawn) [Compound 342] | 28.3 | 39 | 57 | Lung Compliance (sensitized guinea pigs; 1 min after challenge): 0.154 ± 0.055 ml/cm H2O; Lung Resistance (sensitized guinea pigs; 1 min after challenge): 0.453 ± 0.120 cm H2O/ml/sec; Lung Compliance (sensitized guinea pigs; 2 min after challenge): 0.073 ± 0.038 ml/cm H2O; Lung Resistance (sensitized guinea pigs; 2 min after challenge): 1.786 ± 0.82 cm H2O/ml/sec; Lung Compliance (sensitized guinea pigs; 3 min after challenge): 0.044 ± 0.022 ml/cm H2O; Lung Resistance (sensitized guinea pigs; 3 min after challenge): 1.930 ± 0.55 cm H2O/ml/sec; Lung Compliance (sensitized guinea pigs; 4 min after challenge): 0.044 ± 0.022 ml/cm H2O; Lung Resistance (sensitized guinea pigs; 4 min after challenge): 1.621 ± 0.36 cm H2O/ml/sec; Lung Compliance (sensitized guinea pigs; 5 min after challenge): 0.038 ± 0.015 ml/cm H2O; Lung Resistance (sensitized guinea pigs; 5 min after challenge): 1.4816 ± 0.32 cm H2O/ml/sec; Lung Compliance (sensitized guinea pigs; 10 min after challenge): 0.048 ± 0.005 ml/cm H2O; Lung Resistance (sensitized guinea pigs; 10 min after challenge): 1.002 ± 0.14 cm H2O/ml/sec; Lung Compliance (sensitized guinea pigs; 20 min after challenge): 0.084 ± 0.005 ml/cm H2O; Lung Resistance (sensitized guinea pigs; 20 min after challenge): 0.524 ± 0.08 cm H2O/ml/sec; Lung Compliance (sensitized guinea pigs; 30 min after challenge): 0.109 ± 0.006 ml/cm H2O; Lung Resistance (sensitized guinea pigs; 30 min after challenge): 0.354 ± 0.04 cm H2O/ml/sec; Lung Compliance (sensitized guinea pigs; Baseline): 0.444 ± 0.037 ml/cm H2O; Lung Resistance (sensitized guinea pigs; Baseline): 0.212 ± 0.020 cm H2O/ml/sec; Lung Compliance (sensitized guinea pigs; OA/10 s): 0.464 ± 0.031 ml/cm H2O; Lung Resistance (sensitized guinea pigs; OA/10 s): 0.223 ± 0.020 cm H2O/ml/sec
C[C@@]12CCCC1C1C(CC2)[C@@]2(C)CC[C@H](O)CC2[C@@H](O)[C@@H]1O (stereo partly drawn) [Compound 351] | 43.6 | – | 33.6 | –
C[C@]12CC[C@H](O)CC1[C@@H](O)[C@H](O)C1C2CC[C@@]2(C)C1CCC21OCCO1 (stereo partly drawn) [Compound 328] | – | – | 34.3 | –
C/C=C1/CCC2C3C(CC[C@]12C)[C@@]1(C)CC[C@@H](O)CC1[C@H]1OC(C)(C)O[C@H]31 (stereo partly drawn) [Compound 338] | 64 | – | – | –
CC(C)[C@H]1CC(=O)OC([C@@H](C)C2CC(=O)C3C4CCC5C[C@@H](O)CC[C@]5(C)C4CC[C@@]32C)C1 (stereo partly drawn) [Compound 266] | 17.4 | – | -12.5 | –
CC1(C)O[C@@H]2C3C(CC[C@]4(C)C(=O)CCC34)[C@@]3(C)CC[C@H](O)CC3[C@H]2O1 (stereo partly drawn) [Compound 331] | 14.5 | 5 | – | –
C[C@]12CC[C@@H](O)C[C@@H]1[C@@H](O)[C@H](O)[C@@H]1[C@@H]2CC[C@]2(C)[C@@H](O)CC[C@@H]12 [Compound 327] | – | – | – | percentage contraction compared to 100 μM methacholine (isolated trachea; OA 0.01 μg/ml): 0%; percentage contraction compared to 100 μM methacholine (isolated trachea; OA 0.1 μg/ml): 0%; inhibition at 25 µM [1, 3]: 35.2%
C/C=C1/CCC2C3C(CC[C@]12C)[C@@]1(C)CCC(=O)CC1[C@@H](O)[C@@H]3O (stereo partly drawn) [Compound 335] | 30.7 | 69 | 56 | –
C[C@]12CC[C@@H](O)C[C@@H]1[C@@H](O)[C@H](O)[C@@H]1[C@@H]2CC[C@]2(C)C(=O)CC[C@@H]12 [Compound 326] | – | – | – | percentage contraction compared to 100 μM methacholine (isolated trachea; OA 0.01 μg/ml): 0%
C/C=C1/CCC2C3CCC4C[C@@H](O)CC[C@]4(C)C3CC[C@]12C (stereo partly drawn) [Compound 251] | -10.5 | – | – | –
C/C=C1/CCC2C3C(CC[C@]12C)[C@@]1(C)CC[C@@H](Cl)CC1[C@H]1OC(C)(C)O[C@H]31 (stereo partly drawn) [Compound 336] | 79.3 | – | – | –
